Counter-ions that a name gives are not always drawn.
Columns and labels:
Assay type in all cases: in vivo, human
[1] = test system: patients with facial acne vulgaris; assay: Adverse events subsequent to light exposure (Phase II study)
Procedure: A clinical Phase II study involving 23 males and 20 females (age 18 years or more) with facial acne vulgaris (papulo-pustular acne and at least 15 inflammatory acne lesions on at least one side of the face) has been performed. Patients were randomized to receive either MAL cream on the face at a concentration of 160 mg/g (16% wt), 80 mg/g (8% wt) or 40 mg/g (4% wt). The cream was administered under occlusion. […] A light dose of 37 J/cm^2 using Photocure's Aktilite 128 LED light source was provided at a working distance between 5 and 8 cm. The average time to deliver said light dose was about 8 minutes. Safety was evaluated by medical questionnaire and adverse events, i.e., side effects, reporting. Additional data relating to the adverse events, i.e., side effects, observed subsequent to light exposure during the study are shown in the table below. For patients who received the standard PDT treatment, i.e., patients in the 3 h after MAL (160 mg/g) group, not only a larger number of adverse events were observed than for the patients in any of the other groups, but the adverse events were also more severe in nature, i.e., higher numbers of moderate and severe adverse events (AEs) were observed.

[2] = test system: patients with facial acne vulgaris; assay: Pain during light exposure and post-PDT pain, visual analog scale (Phase II study); details: for Pain during light exposure, Mean: visual analog scale 0-100
Procedure: (§1) A clinical Phase II study involving 23 males and 20 females (age 18 years or more) with facial acne vulgaris (papulo-pustular acne and at least 15 inflammatory acne lesions on at least one side of the face) has been performed. Patients were randomized to receive either MAL cream on the face at a concentration of 160 mg/g (16% wt), 80 mg/g (8% wt) or 40 mg/g (4% wt). The cream was administered under occlusion. […] A light dose of 37 J/cm^2 using Photocure's Aktilite 128 LED light source was provided at a working distance between 5 and 8 cm. The average time to deliver said light dose was about 8 minutes. Safety was evaluated by medical questionnaire and adverse events, i.e., side effects, reporting. Mean pain during light exposure was evaluated by patients on a visual analog scale where 0=no pain and 100=worst possible pain.

[3] = test system: patients with facial acne vulgaris; assay: Post-PDT erythema from patient journal (Phase II study)
Procedure: as §1, with “This information” for “Safety”, “derived from the journal kept” for “evaluated”, “patients. […] There is a significant difference among the 6 groups in the duration of post PDT erythema (p=0.03). […] In fact, all” for “medical questionnaire and adverse events, i.e., side effects, reporting. Mean pain during light exposure was evaluated by”, “in the standard PDT treatment group experienced post-PDT erythema.” for “on a visual analog scale where 0=no pain and 100=worst possible pain.”

[4] = 3 h, 160 mg/g (standard PDT), 7 patients
[5] = 160 mg/g 3 h and 80 mg/g 1.5 h groups together

- Patients in whom light delivery had to be ended because of pain [2, 5]: 2 patients
- Patients in whom light delivery had to be interrupted because of pain [2, 5]: 2 patients
- Patients experiencing post-PDT pain ([2]; 0.5 h after MAL (80 mg/g)): 1 out of 6
- Pain during light exposure, Mean ([2]; MAL cream 40 mg/g, 1 h before red light 37 J/cm^2): 2
- Pain during light exposure, Mean ([2]; MAL cream 40 mg/g, 1.5 h before red light 37 J/cm^2): 19
- Pain during light exposure, Mean ([2]; MAL cream 80 mg/g, 0.5 h before red light 37 J/cm^2): 1
- Pain during light exposure, Mean ([2]; MAL cream 80 mg/g, 1 h before red light 37 J/cm^2): 9
- Pain during light exposure, Mean ([2]; MAL cream 80 mg/g, 1.5 h before red light 37 J/cm^2): 32
- Pain during light exposure, Mean ([2]; MAL cream 160 mg/g, 3 h before red light 37 J/cm^2 (standard PDT)): 64
- Patients experiencing post-PDT pain ([2]; all other groups (40 mg/g 1 h and 1.5 h; 80 mg/g 1 h and 1.5 h)): zero
- Patients experiencing post-PDT pain ([2]; standard PDT group (160 mg/g, 3 h)): 5 out of 7
- Mean duration of erythema (shortest) ([3]; 40 mg/g for 1 hour): 0.5 days
- Mean duration of erythema (longest) ([3]; 160 mg/g for 3 hours): 14 days
- Duration of post PDT erythema, Mean ([3]; MAL cream 40 mg/g, 1 h): 4 days
- n: number of patients experiencing post-PDT erythema ([3]; MAL cream 40 mg/g, 1 h, 8 patients in group): 4
- Duration of post PDT erythema, Mean ([3]; MAL cream 40 mg/g, 1.5 h): 1.8 days
- n: number of patients experiencing post-PDT erythema ([3]; MAL cream 40 mg/g, 1.5 h, 8 patients in group): 6
- n: number of patients experiencing post-PDT erythema ([3]; MAL cream 80 mg/g, 0.5 h, 6 patients in group): 0
- Duration of post PDT erythema, Mean ([3]; MAL cream 80 mg/g, 1 h): 2.1 days
- n: number of patients experiencing post-PDT erythema ([3]; MAL cream 80 mg/g, 1 h, 8 patients in group): 5
- Duration of post PDT erythema, Mean ([3]; MAL cream 80 mg/g, 1.5 h): 3.7 days
- n: number of patients experiencing post-PDT erythema ([3]; MAL cream 80 mg/g, 1.5 h, 6 patients in group): 3
- Duration of post PDT erythema, Mean ([3]; MAL cream 160 mg/g, 3 h (standard PDT)): 11.9 days
- n: number of patients experiencing post-PDT erythema ([3]; MAL cream 160 mg/g, 3 h (standard PDT), 7 patients in group): 7
- Patients experiencing post-PDT erythema ([3]; standard PDT treatment group (160 mg/g, 3 h)): all patients
SMILES: COC(=O)CCC(=O)CN [MAL, methylaminolevulinate hydrochloride]
- Mild AEs Per Pat ([1]; 0.5 h, 80 mg/g): 0.6
- Moderate AEs Per Pat ([1]; 0.5 h, 80 mg/g): 0
- Severe AEs Per Pat ([1]; 0.5 h, 80 mg/g): 0
- Total AEs Per Pat ([1]; 0.5 h, 80 mg/g): 0.667
- Mild AEs ([1]; 0.5 h, 80 mg/g, 6 patients): 4
- Moderate AEs ([1]; 0.5 h, 80 mg/g, 6 patients): 0
- Severe AEs ([1]; 0.5 h, 80 mg/g, 6 patients): 0
- Total AEs ([1]; 0.5 h, 80 mg/g, 6 patients): 4
- Mild AEs Per Pat ([1]; 1 h, 40 mg/g): 1.125
- Moderate AEs Per Pat ([1]; 1 h, 40 mg/g): 0
- Severe AEs Per Pat ([1]; 1 h, 40 mg/g): 0
- Total AEs Per Pat ([1]; 1 h, 40 mg/g): 1.125
- Mild AEs ([1]; 1 h, 40 mg/g, 8 patients): 9
- Moderate AEs ([1]; 1 h, 40 mg/g, 8 patients): 0
- Severe AEs ([1]; 1 h, 40 mg/g, 8 patients): 0
- Total AEs ([1]; 1 h, 40 mg/g, 8 patients): 9
- Mild AEs Per Pat ([1]; 1 h, 80 mg/g): 1.375
- Moderate AEs Per Pat ([1]; 1 h, 80 mg/g): 0
- Severe AEs Per Pat ([1]; 1 h, 80 mg/g): 0
- Total AEs Per Pat ([1]; 1 h, 80 mg/g): 1.375
- Mild AEs ([1]; 1 h, 80 mg/g, 8 patients): 11
- Moderate AEs ([1]; 1 h, 80 mg/g, 8 patients): 0
- Severe AEs ([1]; 1 h, 80 mg/g, 8 patients): 0
- Total AEs ([1]; 1 h, 80 mg/g, 8 patients): 11
- Mild AEs Per Pat ([1]; 1.5 h, 40 mg/g): 2
- Moderate AEs Per Pat ([1]; 1.5 h, 40 mg/g): 0.125
- Severe AEs Per Pat ([1]; 1.5 h, 40 mg/g): 0
- Total AEs Per Pat ([1]; 1.5 h, 40 mg/g): 2.125
- Mild AEs ([1]; 1.5 h, 40 mg/g, 8 patients): 16
- Moderate AEs ([1]; 1.5 h, 40 mg/g, 8 patients): 1
- Severe AEs ([1]; 1.5 h, 40 mg/g, 8 patients): 0
- Total AEs ([1]; 1.5 h, 40 mg/g, 8 patients): 17
- Mild AEs Per Pat ([1]; 1.5 h, 80 mg/g): 1.5
- Moderate AEs Per Pat ([1]; 1.5 h, 80 mg/g): 0.167
- Severe AEs Per Pat ([1]; 1.5 h, 80 mg/g): 0.167
- Total AEs Per Pat ([1]; 1.5 h, 80 mg/g): 1.833
- Mild AEs ([1]; 1.5 h, 80 mg/g, 6 patients): 9
- Moderate AEs ([1]; 1.5 h, 80 mg/g, 6 patients): 1
- Severe AEs ([1]; 1.5 h, 80 mg/g, 6 patients): 1
- Total AEs ([1]; 1.5 h, 80 mg/g, 6 patients): 11
- Mild AEs Per Pat ([1]; 3 h, 160 mg/g (standard PDT)): 2.14
- Moderate AEs Per Pat ([1]; 3 h, 160 mg/g (standard PDT)): 1
- Severe AEs Per Pat ([1]; 3 h, 160 mg/g (standard PDT)): 0.429
- Total AEs Per Pat ([1]; 3 h, 160 mg/g (standard PDT)): 3.571
- Mild AEs [1, 4]: 15
- Moderate AEs [1, 4]: 7
- Severe AEs [1, 4]: 3
- Total AEs [1, 4]: 25
- Cracked skin with bleeding ([1]; standard PDT treatment, 3 h after MAL (160 mg/g), did not occur with any other treatment modality): one patient
